Test results from paper PMC11714206, “Massively Parallel Screening of Toll/Interleukin‐1 Receptor (TIR)‐Derived Peptides Reveals Multiple Toll‐Like Receptors (TLRs)‐Targeting Immunomodulatory Peptides” (Advanced Science, 2024).
Several values for one entry are separate records, joined by “and”; a condition that tells them apart may be missing. Equal entries are not always repeated.

Biological target: T1, MAL^TIR (Homo sapiens, UniProt P58753)
T1 construct: MAL (residues 79–221); 6xHis; made in house; host or cells: E. coli BL21 (DE3)
T1 sequence (P58753 79-221): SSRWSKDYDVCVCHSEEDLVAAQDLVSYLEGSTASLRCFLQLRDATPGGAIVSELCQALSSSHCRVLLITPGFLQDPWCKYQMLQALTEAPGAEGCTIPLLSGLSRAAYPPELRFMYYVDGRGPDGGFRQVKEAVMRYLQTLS
Experiment: T‐Surf phage library (P8 and P3) selection against MAL^TIR, four rounds, NGS read counts
Type: binding
Settings: for P8_MAL Rank (after) / P8_MAL Rank (before): P8 library; for P3_MAL Rank (after) / P3_MAL Rank (before): P3 library; for Population: 4th round of selection against MAL TIR, share of NGS reads
How it was run: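 Four panning rounds on TIR domain adsorbed at 5 µg mL^−1; binding 1 h at 20–22 °C, elution with 100 mM HCl. Output: NGS read counts of round‐4 pools versus naïve library.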

[1] = 4R selection against MAL, rank after grouping
[2] = 4R selection against MAL, rank before grouping
[3] = P3_MAL: rank by count after grouping
[4] = P3_MAL: rank by count before grouping
[5] = selection against MAL TIR, rank by count after grouping
[6] = selection against MAL TIR, rank by count before grouping
[7] = selection against MAL, rank by count after grouping
[8] = selection against MAL, rank by count before grouping
[9] = selection against MAL, rank after grouping
[10] = selection against MAL, rank before grouping
[11] = P8_MAL: rank by count after grouping
[12] = P8_MAL: rank by count before grouping
[13] = P8_MAL pool: P8 T-Surf phage library
[14] = P3_MAL pool: P3 T-Surf phage library

What does the source list for WFYKPLVSLILRDTKA?
P8_MAL Rank (after) [1]: 619; P8_MAL Rank (before) [2]: 1307

For ERILNQLRRSSQSIAK, which “Rank (after)” value [3] is on record?
Its value is 421.

What about the “Rank (before)” value [4] of the same sequence?
The value was 2078.

What does the source list for RDFVAYLCQALANKGI?
P8_MAL Rank (after) [1]: 626; P8_MAL Rank (before) [2]: 2172

Which results are given for MERVKAFHQRLKTALGH?
P3_MAL Rank (after) [1]: 587; P3_MAL Rank (before) [2]: 2929

SFLYTLLSNLTHPTNF was tested. Which “P8_MAL Rank (after)” value [5] did it give?
The value was 265.

What about the “P8_MAL Rank (before)” value [6] of the same sequence?
Its value is 1449.

Which results are given for SLLYDHLRRLGIRAIM?
P8_MAL Rank (after) [7]: 700; P8_MAL Rank (before) [8]: 2491

How did the “Rank (after)” value [3] turn out when YAFTGHLRHHLQAKDH was run?
The value was 120.

And the “Rank (before)” value [4]?
Its value is 394.

Which “P8_MAL Rank (after)” value [5] does the source give for CFYERLVNLILRDTKV here?
The value was 205.

And the “P8_MAL Rank (before)” value [6]?
Its value is 1107.

Which results are given for AFFWAHLRTVLGKPTI?
P8_MAL Rank (after) [9]: 529; P8_MAL Rank (before) [10]: 1657

AFFWEHLRPLLGKQAM was tested. Which “P8_MAL Rank (after)” value [1] did it give?
Its value is 622.

What about the “P8_MAL Rank (before)” value [2] of the same sequence?
The value was 1711.

How did the “Rank (after)” value [3] turn out when KCFWVTLLYALHRNPR was run?
Its value is 465.

And the “Rank (before)” value [4]?
The value was 3483.

Which “P8_MAL Rank (after)” value [1] does the source give for QLIQQLIELHLDQLHL here?
Its value is 653.

What about the “P8_MAL Rank (before)” value [2] of the same sequence?
Its value is 2349.

How did the “Rank (after)” value [11] turn out when WLYVRLVSLILRDTKV was run?
The value was 144.

And the “Rank (before)” value [12]?
Its value is 1392.

How did the Population [13] turn out when AFLYTFLINPTHPTNF was run?
The Population was 0.00309%.

How did the “Rank (after)” value [11] turn out when RNFGVYLFQALANKGI was run?
Its value is 409.

What about the “Rank (before)” value [12] of the same sequence?
The value was 2238.

Which Population [14] does the source give for YAFTGHLHRYLVQLGV here?
The Population was 0.00676%.

With AFLYTFLISLTHPTNF as the sequence, how does the Population [13] read?
The Population was 0.00402%.

With YAFTGHLERHEVQRGV as the sequence, how does the “P3_MAL Rank (after)” value [7] read?
Its value is 715.

And the “P3_MAL Rank (before)” value [8]?
Its value is 1367.

How did the Population [14] turn out when SSFREGLWRRLELSKK was run?
The Population was 0.00488%.

PNLRPQVLNYLIRTKT was tested. Which “P3_MAL Rank (after)” value [5] did it give?
The value was 208.

And the “P3_MAL Rank (before)” value [6]?
Its value is 2670.

What does the source list for HQAFWNRLWAKLKPP?
P3_MAL Rank (after) [7]: 755; P3_MAL Rank (before) [8]: 2873

What does the source list for YTALTNSASHTFRGND?
Rank (after) [3]: 444; Rank (before) [4]: 1551

Which results are given for TFLGHLYSALVHAGIH?
Rank (after) [11]: 479; Rank (before) [12]: 2561

Which “Rank (after)” value [3] does the source give for HQKGSYGEAPAEHEKR here?
The value was 397.

And the “Rank (before)” value [4]?
Its value is 2901.

For WHFPLPLRMQELLRKM, which “Rank (after)” value [3] is on record?
The value was 436.

And the “Rank (before)” value [4]?
The value was 1289.

What does the source list for WFYERLVSLMLRNTKV?
P8_MAL Rank (after) [9]: 540; P8_MAL Rank (before) [10]: 1225

HLLKKPRNKRISPFIA was tested. Which “P3_MAL Rank (after)” value [7] did it give?
Its value is 692.

What about the “P3_MAL Rank (before)” value [8] of the same sequence?
Its value is 2803.

Which “P8_MAL Rank (after)” value [9] does the source give for AFLYSFLTNLTHPTEN here?
Its value is 494.

What about the “P8_MAL Rank (before)” value [10] of the same sequence?
The value was 1818.

With ERLFSEPLNVNKDLLG as the sequence, how does the “Rank (after)” value [3] read?
Its value is 434.

And the “Rank (before)” value [4]?
Its value is 2032.

Which “P3_MAL Rank (after)” value [1] does the source give for KPSVSGPEKSWHFYL here?
The value was 660.

And the “P3_MAL Rank (before)” value [2]?
The value was 3467.

With YQWRNALTAAANLRGW as the sequence, how does the “P3_MAL Rank (after)” value [5] read?
The value was 238.

And the “P3_MAL Rank (before)” value [6]?
Its value is 1525.

With AFFWAQLKSVLGNPTM as the sequence, how does the Population [13] read?
Its Population is 0.00371% and 0.00278%.

With WFYERLVSLILRDSKV as the sequence, how does the Population [13] read?
Its Population is 0.00309%.

For NLWRNALTVAANLSGW, which “P3_MAL Rank (after)” value [9] is on record?
The value was 540.

What about the “P3_MAL Rank (before)” value [10] of the same sequence?
The value was 3318.

With AFLYTFLINLTPPTEY as the sequence, how does the “Rank (after)” value [11] read?
The value was 401.

What about the “Rank (before)” value [12] of the same sequence?
The value was 1858.

For WFYERLVSLILRNTRV, which “Rank (after)” value [11] is on record?
Its value is 118.

And the “Rank (before)” value [12]?
Its value is 1290.

AFLYTFLINLPHTNNF was tested. Which “P8_MAL Rank (after)” value [1] did it give?
Its value is 628.

And the “P8_MAL Rank (before)” value [2]?
The value was 1838.

Which results are given for LVAHEISKKMNIFATV?
P3_MAL Rank (after) [7]: 764; P3_MAL Rank (before) [8]: 2101

With WFYERLVSLIRRDIKV as the sequence, how does the “P8_MAL Rank (after)” value [7] read?
The value was 694.

What about the “P8_MAL Rank (before)” value [8] of the same sequence?
The value was 1219.

PYLRTQVLNYLMRTKN was tested. Which “P3_MAL Rank (after)” value [9] did it give?
Its value is 499.

And the “P3_MAL Rank (before)” value [10]?
The value was 2630.

For YAFTGHLHRYLVQRFA, which “P3_MAL Rank (after)” value [9] is on record?
Its value is 514.

What about the “P3_MAL Rank (before)” value [10] of the same sequence?
The value was 1393.

With PNLRTTVLKYLIRTKT as the sequence, how does the “Rank (after)” value [3] read?
Its value is 446.

What about the “Rank (before)” value [4] of the same sequence?
Its value is 2749.

With RLRKWKGALHHFLSWG as the sequence, how does the “P3_MAL Rank (after)” value [7] read?
The value was 728.

What about the “P3_MAL Rank (before)” value [8] of the same sequence?
Its value is 2544.

Which “Rank (after)” value [11] does the source give for RNFVAYLFQGLANKVI here?
The value was 427.

And the “Rank (before)” value [12]?
Its value is 2195.

Which “Rank (after)” value [11] does the source give for SPQEQDGFWVRLIEAL here?
The value was 466.

And the “Rank (before)” value [12]?
The value was 2527.

What does the source list for WFYERLVRLFLRDTKV?
Rank (after) [11]: 446; Rank (before) [12]: 1237

What does the source list for TFLYTFLINLTHPTNY?
P8_MAL Rank (after) [1]: 674; P8_MAL Rank (before) [2]: 2533
